Literature values as cited in US7572882B2 (priority 2000, dated 2009).

Legend:
T helper lymphocytes = details: regardless of HLA type

aKXVAAWTLKAAa
binding to HLA-DR alleles (HLA-DR alleles): bind to most HLA-DR alleles | stimulation of the response of T helper lymphocytes (T helper lymphocytes): stimulate the response of T helper lymphocytes from most individuals
